Experimental findings from ChEMBL document CHEMBL1201862, “PubChem BioAssay data set” (2004) are described below.

Structures are written as SMILES. The source made the active and inactive calls.

Some targets named below: Cytochrome P450 2D6 (Homo sapiens, UniProt P10635); Cytochrome P450 3A4 (Homo sapiens, UniProt P08684); Cytochrome P450 2C9 (Homo sapiens, UniProt P11712).
Another series has as its target T1, Cytochrome P450 1A2 (Homo sapiens, UniProt P05177).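 Note: PubChem cytochrome P450 panel assay, CYP1A2 panel member.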
T1 sequence (P05177 whole entry): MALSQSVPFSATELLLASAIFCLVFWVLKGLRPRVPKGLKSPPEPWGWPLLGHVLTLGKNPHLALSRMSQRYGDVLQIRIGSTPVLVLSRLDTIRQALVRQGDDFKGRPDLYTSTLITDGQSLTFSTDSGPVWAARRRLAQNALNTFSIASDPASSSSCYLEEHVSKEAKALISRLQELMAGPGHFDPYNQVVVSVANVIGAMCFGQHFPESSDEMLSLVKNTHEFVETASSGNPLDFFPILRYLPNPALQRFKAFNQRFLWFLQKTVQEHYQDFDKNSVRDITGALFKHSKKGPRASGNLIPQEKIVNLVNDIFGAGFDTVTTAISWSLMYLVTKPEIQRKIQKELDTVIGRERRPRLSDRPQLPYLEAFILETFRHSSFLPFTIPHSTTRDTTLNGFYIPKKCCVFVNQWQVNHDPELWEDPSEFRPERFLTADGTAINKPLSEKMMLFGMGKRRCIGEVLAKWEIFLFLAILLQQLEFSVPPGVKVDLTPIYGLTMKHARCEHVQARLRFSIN

In series [1] the target is T2, Heat shock factor protein 1 (Mus musculus, UniProt P38532).
T2 sequence (P38532 whole entry): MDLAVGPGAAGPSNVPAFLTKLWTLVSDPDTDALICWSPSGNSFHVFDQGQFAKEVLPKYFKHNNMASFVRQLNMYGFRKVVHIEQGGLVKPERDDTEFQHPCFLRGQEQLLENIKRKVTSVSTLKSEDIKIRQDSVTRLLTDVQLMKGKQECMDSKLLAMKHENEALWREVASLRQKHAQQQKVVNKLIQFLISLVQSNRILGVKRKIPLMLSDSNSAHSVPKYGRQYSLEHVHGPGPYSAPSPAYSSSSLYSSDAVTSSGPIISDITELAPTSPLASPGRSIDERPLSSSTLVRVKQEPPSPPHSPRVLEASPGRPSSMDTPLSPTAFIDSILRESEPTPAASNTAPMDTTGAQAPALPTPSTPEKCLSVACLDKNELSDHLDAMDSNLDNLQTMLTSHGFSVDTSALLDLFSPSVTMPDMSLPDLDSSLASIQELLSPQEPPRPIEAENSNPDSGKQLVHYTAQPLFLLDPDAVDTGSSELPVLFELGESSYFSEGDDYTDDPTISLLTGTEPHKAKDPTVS
The series is described as follows: inhibition of MG132-induced HSE-luciferase signal, confirmation, cell-based, NIH3T3, luminescence, dose retest (AID 2382).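 Note: NIH3T3 fibroblasts with HSF1-driven luciferase reporter stressed by proteasome inhibitor MG132; luminescence from HSF1-driven luciferase expression after 8 hours of MG132 stress.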 The format is functional.

The target in a further series is Cytochrome P450 2C19 (Homo sapiens, UniProt P33261). In words: Cytochrome panel assay with activity outcomes. Panel member name: p450-cyp2c19 Compounds with AC50 equal or less than 10 uM are considered active. The series is classed as functional.
Series [2] has as its target Luciferin 4-monooxygenase (Photinus pyralis, UniProt P08659). In words: firefly luciferase enzyme inhibitors, dose response, biochemical, luminescence (AID 1891).
Series [3] can be described thus: Luminescence Cell-Based Dose Confirmation HTS to Identify Inhibitors of Platelet Dense Granule Release. [Related pubchem assays: 1663 (Primary HTS), 1678 (Summary of Project)]. The format is functional.
A short description of series [4]: inhibitors of firefly luciferase expression or activity, dose response, H4 neuroglioma cells, luminescence (AID 1990). The series is classed as functional, cell-based.
A short description of series [5]: inhibitors of SNCA 5'UTR-driven reporter translation, confirmation, H4 neuroglioma cells, luminescence (AID 1988). The series is classed as functional, cell-based.
The nature of series [6]: Luminescence Cell-Based Dose Retest to Confirm Inhibitors of Cancer Stem Cells. [Related pubchem assays (depositor defined):AID2717, AID2721]. The format is functional. To be noted: Homo sapiens.
Series [7] can be described thus: Luminescence Cell-Based Dose Response HTS to Identify Inhibitors of 5'UTR Stem-Loop Driven Prion Protein mRNA Translation in H4 Neuroglioblastoma Cells. [Related pubchem assays: 1827 (Project Summary), 1813 (Primary HTS)]. The format is functional.
Another series relates to INS1. In words: beta cell apoptosis inhibitors, cytokine rescue, dose response, luminescence, retest (AID 449756).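 Note: cell death triggered by IL-1 beta plus TNF-alpha plus IFN-gamma mixture; protective hits raise ATP signal compared with cytokine alone wells.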 The format is functional, cell-based. The conditions noted are these: Rattus norvegicus, INS1.
Series [8] has as its target T2, Heat shock factor protein 1. In words: HSF1 potentiators in luciferase reporter cells, confirmation, cell-based, NIH3T3, luminescence, dose retest (AID 435004).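 Note: stress induced by proteasome inhibitor MG132 added 30 min after compound; luciferase reporter driven by HSF1 response element in NIH3T3 cells; actives raise luminescence as potentiators of the MG132 stress response.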 The series is classed as functional.

Cytochrome P450 2D6, sequence (P10635 whole entry): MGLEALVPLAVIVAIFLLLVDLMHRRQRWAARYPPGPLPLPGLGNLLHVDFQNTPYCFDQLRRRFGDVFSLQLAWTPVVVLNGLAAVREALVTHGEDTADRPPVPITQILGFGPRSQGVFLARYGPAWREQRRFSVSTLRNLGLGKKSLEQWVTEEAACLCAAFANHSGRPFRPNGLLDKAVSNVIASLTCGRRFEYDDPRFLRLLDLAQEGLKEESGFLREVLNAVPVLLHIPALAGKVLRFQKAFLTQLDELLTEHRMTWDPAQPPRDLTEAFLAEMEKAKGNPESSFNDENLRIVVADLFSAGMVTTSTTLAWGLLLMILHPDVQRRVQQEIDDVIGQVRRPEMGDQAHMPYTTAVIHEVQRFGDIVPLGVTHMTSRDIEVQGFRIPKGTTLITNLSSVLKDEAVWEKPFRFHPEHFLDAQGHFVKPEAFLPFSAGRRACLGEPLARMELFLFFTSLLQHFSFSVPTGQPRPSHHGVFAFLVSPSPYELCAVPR
Cytochrome P450 2C19, sequence (P33261 whole entry): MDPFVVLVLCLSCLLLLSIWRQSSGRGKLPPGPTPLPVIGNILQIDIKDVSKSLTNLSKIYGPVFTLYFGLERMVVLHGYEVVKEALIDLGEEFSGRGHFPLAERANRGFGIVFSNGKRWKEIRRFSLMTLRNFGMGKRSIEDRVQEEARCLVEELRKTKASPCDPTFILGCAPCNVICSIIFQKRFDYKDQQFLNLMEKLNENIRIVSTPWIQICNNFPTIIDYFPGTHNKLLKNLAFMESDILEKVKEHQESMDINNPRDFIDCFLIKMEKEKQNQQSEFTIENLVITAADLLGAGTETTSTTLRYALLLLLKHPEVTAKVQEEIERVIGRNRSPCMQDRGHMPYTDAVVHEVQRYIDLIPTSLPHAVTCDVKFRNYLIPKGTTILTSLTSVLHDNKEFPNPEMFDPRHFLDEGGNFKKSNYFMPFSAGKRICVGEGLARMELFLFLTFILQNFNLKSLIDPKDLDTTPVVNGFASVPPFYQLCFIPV
Cytochrome P450 2C9, sequence (P11712 whole entry): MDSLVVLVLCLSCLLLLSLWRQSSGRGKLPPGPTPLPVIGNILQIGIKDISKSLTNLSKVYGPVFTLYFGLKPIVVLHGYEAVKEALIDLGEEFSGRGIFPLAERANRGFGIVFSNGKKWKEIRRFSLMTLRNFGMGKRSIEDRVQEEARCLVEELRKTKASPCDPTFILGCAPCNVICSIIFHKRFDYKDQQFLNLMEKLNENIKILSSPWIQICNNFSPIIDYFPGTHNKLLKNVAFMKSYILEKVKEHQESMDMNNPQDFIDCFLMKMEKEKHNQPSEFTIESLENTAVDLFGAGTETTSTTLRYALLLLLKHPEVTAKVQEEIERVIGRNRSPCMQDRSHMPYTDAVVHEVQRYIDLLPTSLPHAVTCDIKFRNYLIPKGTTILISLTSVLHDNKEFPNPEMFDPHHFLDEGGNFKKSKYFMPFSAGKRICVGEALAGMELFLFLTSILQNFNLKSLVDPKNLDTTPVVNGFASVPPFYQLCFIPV
Luciferin 4-monooxygenase, sequence (P08659 whole entry): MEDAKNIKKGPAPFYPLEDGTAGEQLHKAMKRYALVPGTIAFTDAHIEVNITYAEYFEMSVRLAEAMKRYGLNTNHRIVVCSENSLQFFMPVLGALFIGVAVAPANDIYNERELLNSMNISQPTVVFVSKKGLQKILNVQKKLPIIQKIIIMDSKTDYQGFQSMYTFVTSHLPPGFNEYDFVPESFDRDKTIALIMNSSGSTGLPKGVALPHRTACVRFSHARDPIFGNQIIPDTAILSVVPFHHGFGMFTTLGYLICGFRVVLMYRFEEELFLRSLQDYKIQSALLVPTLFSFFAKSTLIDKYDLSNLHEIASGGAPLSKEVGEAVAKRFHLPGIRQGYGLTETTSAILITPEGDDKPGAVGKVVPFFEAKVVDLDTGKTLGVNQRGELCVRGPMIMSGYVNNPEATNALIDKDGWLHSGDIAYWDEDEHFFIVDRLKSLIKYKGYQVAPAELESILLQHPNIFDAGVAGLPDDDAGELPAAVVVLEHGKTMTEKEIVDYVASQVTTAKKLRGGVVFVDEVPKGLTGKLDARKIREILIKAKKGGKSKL
Cytochrome P450 3A4, sequence (P08684 whole entry): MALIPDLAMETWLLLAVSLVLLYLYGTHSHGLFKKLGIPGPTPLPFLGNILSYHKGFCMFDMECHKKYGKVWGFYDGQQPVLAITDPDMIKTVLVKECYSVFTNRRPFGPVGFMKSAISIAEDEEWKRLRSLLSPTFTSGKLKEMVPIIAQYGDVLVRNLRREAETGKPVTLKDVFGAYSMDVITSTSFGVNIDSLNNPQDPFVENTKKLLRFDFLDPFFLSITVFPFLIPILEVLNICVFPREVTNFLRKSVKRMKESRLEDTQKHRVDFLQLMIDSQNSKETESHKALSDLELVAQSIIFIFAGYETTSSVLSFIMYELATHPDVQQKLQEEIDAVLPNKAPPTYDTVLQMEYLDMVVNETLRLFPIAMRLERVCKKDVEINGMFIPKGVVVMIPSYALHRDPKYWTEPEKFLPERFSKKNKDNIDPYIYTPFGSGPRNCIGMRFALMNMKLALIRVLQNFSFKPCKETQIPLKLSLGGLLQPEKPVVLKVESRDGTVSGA

Consider `COC(=O)[C@@]1(Cc2ccc(F)cc2)[C@H]2c3cc(C(=O)N4CCCC4)n(Cc4ccc(C)o4)c3C[C@H]2CN1C(=O)c1ccccc1`, for which the AC50 is 39.8 µM (inconclusive) on Cytochrome P450 2D6 and 10 µM (inconclusive) on Cytochrome P450 1A2.
In the case of `CN(Cc1ccco1)c1ccnc(-c2cccc(C#N)c2)n1`, on Cytochrome P450 2D6, the AC50 was 20 µM (inconclusive).
On to `CC1=NN(C(N)=S)C(C)(C)C1`, for which, in [1], the EC50 is > 195 µM (not active).
Take `O=C(c1ccco1)N1CCC[C@@]2(CCN(Cc3nccs3)C2)C1`: the AC50 was 10 µM (inconclusive) at Cytochrome P450 2D6, 39.8 µM (inconclusive) on Cytochrome P450 2C19 (read-out: AC50) and 7.94 µM (inconclusive) on Cytochrome P450 3A4.
Turning to `C=CCn1c2ccccc2c2nnc(SCC(=O)O)nc21`, in series [1], the EC50 was > 195 µM (not active).
Turning to `CC(C)(C)c1ccc(COC(=O)CNC(=O)CNC(=O)Cc2ccccc2)cc1`, the AC50 on Cytochrome P450 2C19 (read-out: AC50) was 31.6 µM (inconclusive).
Take `Cc1ccc(S(=O)(=O)Nc2cccnc2)c(C)c1C`: the EC50 in series [1] is listed as > 195 µM (not active).
In the case of `COc1ccc(/C=C2\CCc3c2nc2ccccc2c3C(=O)O)cc1OC`, the results for the EC50 in series [2] and in series [3] were 6.42 µM (active) and 73.5 µM (active), respectively.
With `COc1ccc(Oc2ncc3nc(-c4ccc(F)cc4)c(=O)n(Cc4cccs4)c3n2)cc1`, the AC50 was 3.16 µM (inconclusive) on Cytochrome P450 2C9 and 5.01 µM (inconclusive) on Cytochrome P450 1A2.
`COc1c(O)ccc2c1CN1CCc3cc4c(cc3[C@@H]1C2)OCO4`: the results for the AC50 on Cytochrome P450 2C19 (read-out: AC50), at Cytochrome P450 1A2 and on Cytochrome P450 3A4 were 3.98 µM (inconclusive), 0.501 µM (inconclusive) and 5.01 µM (inconclusive), respectively.
Turning to `Cc1ccc([N+](=O)[O-])cc1NC(=O)CSc1n[nH]c(-c2cccnc2)n1`, in series [1], the EC50 is given as > 195 µM (not active).
Consider `Cc1cccc(C)c1NC(=O)C[S+]([O-])CC(=O)NCCCc1ccccc1` (configuration not stated), for which the AC50 was 22.4 µM (inconclusive) at Cytochrome P450 2C9 and 14.1 µM (inconclusive) on Cytochrome P450 3A4.
On to `CCCCN(CC)C(=O)Cc1ccccc1OC`, for which, on Cytochrome P450 2D6, the AC50 is 28.2 µM (inconclusive).
As to `Cc1cc(C(=O)NCc2ccccc2)no1`, the figures for the AC50 on Cytochrome P450 2D6, at Cytochrome P450 2C19 (read-out: AC50) and on Cytochrome P450 1A2 were 20 µM (inconclusive), 28.2 µM (inconclusive) and 0.398 µM (inconclusive), respectively.
As for `COc1ncc2nc(CCc3ccccc3)c(=O)n(Cc3cccs3)c2n1`, the AC50 on Cytochrome P450 2D6 is 12.6 µM (inconclusive).
As for `Cc1noc(C)c1-c1nc(NCCN2CCOCC2)c2ccccc2n1`, the AC50 at Cytochrome P450 2D6 was 25.1 µM (inconclusive).
In the case of `CC(C)CCNC(=O)Cn1cc2c(n1)CCCCC2`, the EC50 in series [1] was > 195 µM (not active).
As to `CC[C@@H]1CC(=O)N(SC[C@H](N)C(=O)O)C1=O`, the AC50 result at Cytochrome P450 2C19 is listed as “inconclusive”.
`OCC[C@@H]1C[C@@H](O)[C@H](O)[C@@]2(Cc3ccccc3CO2)O1`: the EC50 in series [1] is given as > 195 µM (not active).
For `Cc1cc(NC(=O)COc2ccc(Cl)cc2Cl)n(-c2ccccc2)n1`, at Cytochrome P450 2D6, the AC50 is 7.08 µM (inconclusive).
As for `CC1CCC(C(=O)NC(C(=O)N2CCC(N3CCCCC3)CC2)C(C)C)CC1` (configuration not stated), the AC50 on Cytochrome P450 2C19 (read-out: AC50) was 8.91 µM (inconclusive); at Cytochrome P450 3A4, 14.1 µM (inconclusive).
For `CN1CCN(C2CC(=O)N(Cc3ccc(N4CCCC4=O)cc3)C2=O)CC1` (configuration not stated), the half-maximal activity concentration (AC50) entry at Cytochrome P450 2C19 is listed as “inconclusive”.
On to `C=CCCC(=O)Nc1nc(C)c(-c2csc(Nc3cc(OC)ccc3OC)n2)s1`, for which the EC50 in series [4] was > 120 µM (not active); in series [5], 5.52 µM (active); in series [7], 12.1 µM (active). Moreover, the AC50 in series [6] is 0.71 µM (active).
In the case of `Fc1ccc(Nc2ccnc(-c3ccccc3C(F)(F)F)n2)cc1`, the AC50 at Cytochrome P450 2D6 was 39.8 µM (inconclusive).
In the case of `CCOC(=O)N1CCC(Nc2ncnc3c2cnn3-c2ccc(Cl)cc2)CC1`, the EC50 in series [1] is 89.4 µM (active).
Take `Cc1ccc(CNC(=O)c2cnc3ccccc3n2)cc1`: the EC50 in [2] and in series [3] was > 112 µM (not active) throughout.
For the compound `C/C(=N\Nc1nc(-c2ccccc2)cs1)c1cccs1`, in series [1], the EC50 is reported as > 195 µM (not active).
In the case of `COCCn1c(=O)c(-c2cccc(C#N)c2)nc2cnc(N3CCN(C)CC3)nc21`, the AC50 on Cytochrome P450 2C9 is 3.98 µM (inconclusive); at Cytochrome P450 1A2, 15.8 µM (inconclusive).
Regarding `COc1ccc(CNc2nc(-c3cccc(NS(C)(=O)=O)c3)nc3ccccc23)c(OC)c1`, the AC50 at Cytochrome P450 2D6 was 12.6 µM (inconclusive).
For the compound `O=C(N/N=C/c1ccc2c(c1)OCO2)/C(=C/c1ccc2c(c1)OCO2)NC(=O)c1ccccc1`, the AC50 on Cytochrome P450 2C9 was 12.6 µM (inconclusive).
On the same count and under the same terms, then `Cc1ccc(C(OC(=O)c2ccco2)C(=O)NC2CCCCC2)cc1` (configuration not stated), with 39.8 µM (inconclusive).
In the case of `CN1CCN(c2nc(-c3cccc(C#N)c3)nc3ccccc23)CC1`, at Cytochrome P450 2D6, the AC50 is 12.6 µM (inconclusive).
For the compound `Cc1cc2nc(-c3ccc(NC(=O)c4cccnc4)cc3)oc2cc1C`, the EC50 in [2] and in series [3] was > 112 µM (not active) throughout. In the series with INS1, the AC50 was 3.87 µM (active).
As to `Cc1onc(-c2c(F)cccc2Cl)c1C(=O)NCC1COc2ccccc2O1` (configuration not stated), the EC50 in [2] and in [3] was > 112 µM (not active) each time.
In the case of `CCc1ccccc1N(CC(=O)N/N=C/c1ccc(OC(=O)OC)c(OC)c1)S(C)(=O)=O`, the EC50 is > 112 µM (not active) in series [2] and 43.7 µM (active) in series [3].
With `COc1ccc(-n2c(-c3cccc(OC)c3)nc(=S)c3c2CCCC3)cc1`, the EC50 in [1] is > 195 µM (not active).
Consider `CCS(=O)(=O)c1ccc2c(c1)N(S(C)(=O)=O)CC(C(=O)NCCOC)O2` (configuration not stated), for which, at Cytochrome P450 2C9, the AC50 is 35.5 µM (inconclusive).
For `Cc1cccc(Oc2nc3ccccn3c(=O)c2/C=C(\C#N)C(=O)NC2CCS(=O)(=O)C2)c1C` (configuration not stated), the figures for the EC50 in [2] and in series [3] were > 112 µM (not active) and 4.44 µM (active), respectively.
For `COc1ccc(CN2CCN(S(=O)(=O)c3ccccc3)CC2)cc1Br`, the EC50 in [1] is listed as > 195 µM (not active); in series [4], > 120 µM (not active); in series [5], > 120 µM (not active); in series [7] it was > 120 µM (not active).
With `CCOC(=O)C1CCN(Cc2cnc(Oc3ccc(OC)cc3)s2)CC1`, the AC50 on Cytochrome P450 2D6 was 22.4 µM (inconclusive).
With `Cc1c(O)ccc(/C=N/Nc2ncccc2[N+](=O)[O-])c1O`, the EC50 in series [2] was 0.176 µM (active); in [3], 1.12 µM (active); in series [8], > 260 µM (inconclusive).
`CCC(Cc1ccccc1)NS(=O)(=O)c1c(C)nc2sccn2c1=O` (configuration not stated): the EC50 in series [2] and in series [3] was > 112 µM (not active) throughout.
In the case of `c1cc(CNCCCN2CCOCC2)ccn1`, the AC50 was 15.8 µM (inconclusive) on Cytochrome P450 2D6 and 31.6 µM (inconclusive) on Cytochrome P450 3A4.
Turning to `COc1cccc(N2C(=O)N(c3ccccc3)C3CS(=O)(=O)CC32)c1` (configuration not stated), in series [1], the EC50 is given as > 195 µM (not active).
As for `CN(C)c1ccc(/C=C2/C(=O)Nc3ccccc32)cc1`, the AC50 at Cytochrome P450 2C9 is 39.8 µM (inconclusive).
As to `CC(NC(=O)C1CCC(C(=O)NC(C)c2ccccc2)CC1)c1ccccc1` (configuration not stated), the AC50 in series [6] is > 195 µM (inactive); in the series on INS1 it was > 260 µM (inactive).
Regarding `CC(=O)c1ccc(NC(=O)Nc2ccc([N+](=O)[O-])cc2C)cc1`, the EC50 in series [2] and in [3] was > 112 µM (not active) each time.

One may read the AC50 as the concentration at which the activity in the assay is half-maximal. What is called EC50 is the concentration at which the effect is half-maximal.
